Source: US20030198617A1, “Pharmaceutical tryptophan containing dipeptide compositions and methods of use thereof” (priority 1993, published 2003)
“Also recorded” adds a separate entry of the source. Where two headings read alike, the source gives them in different places.

Legend:
[1] = tested on: Herpes Zoster; assay: Herpes Zoster patients, with interferon; assay type: in vivo, human; conditions: for clinical effect: 100 μg, 10 days
Description: Patients with Herpes Zoster are treated with Ile-Trp in combination with conventional interferon treatment and some control patients with interferon alone. […] There is noted prevention of relapses, and some healing occurred earlier than control groups. Immunological indices correlates with clinical outcome.
There was noted prevention of relapses, and healing occurred on the average 40% earlier than control groups. Immunological indices correlated with clinical outcome.

[2] = Periapical granulomas; assay type: in vivo, human; conditions: 3 days
Description: Patients with periapical granulomas treated with Ile-Trp are tested.

[3] = tested on: Shigella
Description: A total 125 patients infected with Shigella dysentery are examined.
A total 125 patients with 53 patients for control infected with Shigella dysentery were examined.

[4] = Toxemia of pregnancy; assay type: in vivo, human
Description: Ile-Trp is applied in pregnant women with Toxemia of first and second half of pregnancy. Ile-Trp is administered IM and intranasally at 100 μg daily for 5-10 days. It is observed that the BP normalized, and peripheral edema is reduced with normalization of the blood chemistry profile, and the restoration of initially altered immunologic indices.
The control group comprised 54 patients.

[5] = Bronchial asthma; assay type: in vivo, human
Description: Patients, children and adults, with bronchial asthma are studied. […] A significant reduction in bronchial obstruction and laryngotracheitis is noted.
A total of 37 patients, children and adults, with bronchial asthma and 28 similar patients as controls were studied. […] The significant reduction in bronchial obstruction and laryngotracheitis was noted. […] In some of the patients it was possible to avoid steroids in the conventional commitment treatment course. In the allowing year observation there was noted a decrease in the incidence of bronchial asthma 4.2 fold. In more than half of the patients the disappearance of drug and food allergy manifestations was noted.

[6] = Chronic osteomyelitis; assay type: in vivo, human
Description: Ile-Trp is prescribed to patients with chronic osteomyelitis of various etiology and localization. Ile-Trp is administered IM or intranasally single daily at 100 μg for 10 days.
The control group comprised 88 patients.

[7] = tested on: antibiotic-resistant staphylococci; assay: Chronic skin diseases caused by antibiotic-resistant staphylococci; assay type: in vivo, human
Description: Ile-Trp is administered to patients suffering from chronic skin diseases caused by antibiotic-resistant staphylococci. Ile-Trp is administered IM in single daily doses of 100 μg for 5 days and intranasally to a different group in the same daily and total dose. In the patients with signs of secondary T-immunodeficiency the staphylococci antibiotic sensitivity to one, few or all antibiotics is increased which then permits one to choose for each patient an effective antibiotic with exclusively high activity against a given pathogen.
47 patients with the same pathology but not treated with the immunomodulator were the control group. […] The differences between these methods of application were not noticed. In all the patients with signs of secondary T-immunodeficiency the staphylococci antibiotic-sensitivity to one, few or all antibiotics has been increased sharply (more than 100-fold) what permitted further to choose for each patient the antibiotic with exclusively high activity against pathogen. As a whole, within the examined group of patients the reliable decease of MIC of all studied antibiotics has been marked. The proposed treatment regiment permitted to obtain the complete recovery in 27 patients, significant improvement—in 8 patients and moderate improvement—in 1 patient.

[8] = tested on: TB bacilli; assay type: in vivo, human; conditions: 5 doses
[9] = Bone-marrow compromise (transplant or radiation exposure); assay type: in vivo, human
[10] = Massive hemotransfusions in post-operative period; assay type: in vivo, human
Description: Patients exposed to massive hemotransfusions during post-operative period are treated with Ile-Trp. The peptide is administered starting from 4-6 day of post-operative period single daily IM or intranasally in doses 100 μg for 5 days.

[11] = Toothpaste containing the dipeptide: dental caries, gingival disease; assay type: in vivo, human
[12] = Pyelonephritis; assay type: in vivo, human
Description: The normal course of delivery in those women treated with IM862 was without complications.

[13] = Pyoderma patients (furunculitis, cellulitis, folliculitis); assay type: in vivo, human; conditions: IM or intranasally 5 days
Description: Patients with pyoderma, including furunculitis, cellulitis, and folliculitis, are treated with Ile-Trp with a control group which is not treated with Ile-Trp. Medications are administered either IM or intranasally for 5 consecutive days. […] Clinical improvement correlate with immunological indices correction. Administration IM, intranasally, or topically as a sterile saline, solution of medication for a period of 5 to 10 days at a concentration of 1 μg/kg body weight.
Medications were administered either IM or intranasally for 5 consecutive days. […] Clinical improvement correlated with immunological indices correction. Administration IM, intranasally, or topically as a sterile saline solution of medication for a period of 5 to 10 days at a concentration of 1 μg/kg body weight.

[14] = Wounds of various origin; assay type: in vivo, human
Description: Ile-Trp is used in patients with wounds of various origin, type and localization. Ile-Trp is administered IM or topically single daily at 100 μg for 10 days.
The control group comprised 24 patients.

[15] = Chemotherapy complications and side effects; assay type: in vivo, human
[16] = tested on: flu; assay type: in vivo, human; conditions: 3 days, with anti-flu vaccination
[17] = Chronic and acute ear infections; assay type: in vivo, human
[18] = tested on: hemorrhagic Dengue Fever; assay: Hemorrhagic Dengue Fever (Examples 38, 94); assay type: in vivo, human
Description: Ile-Trp is applied in patients with hemorrhagic Dengue Fever. […]
It was also noted that the muscular and bone pain experienced typically was reduced, and the immunological indices were normalized.

[19] = Symptom complexes: joint pain, muscle aches, fevers, chills (Examples 17, 66); assay type: in vivo, human

Ile-Trp
clinical effect ([1]; Ile-Trp with interferon): accelerated regression of foci of herpetic infection
clinical effect ([2]; Ile-Trp 100 μg instillation): accelerated arrestation of the inflammatory process
clinical effect ([3]; Ile-Trp IM 100 μg 10 days): normalization of fever
clinical effect ([4]; Ile-Trp 100 μg daily 5-10 days): BP normalized
clinical effect ([5]; Ile-Trp IM 1 μg/kg 5-10 days): less severe clinical symptoms
clinical effect ([6]; Ile-Trp 100 μg 10 days): pronounced positive influence on clinical course
staphylococci antibiotic sensitivity ([7]; Ile-Trp 100 μg 5 days, patients with secondary T-immunodeficiency): is increased
clinical effect ([8]; Ile-Trp 50 to 100 μg every other day, with conventional therapy): disappearance of toxic symptoms
clinical effect ([9]; Ile-Trp IM or intranasally): improved immune parameters
alloblood rejection ([10]; Ile-Trp 100 μg 5 days): do not show clinical manifestation of alloblood rejection
clinical effect ([11]; toothpaste containing Ile-Trp): reduction of gingival disease and reduction in dental caries
clinical effect ([12]; Ile-Trp 100 μg 5-10 days with conventional therapy): reduction of fever
clinical effect ([13]; Ile-Trp): Immunological indices are normalized with disappearance of skin manifestations
wound healing ([14]; Ile-Trp): speeds up; also recorded: accelerates wound healing
clinical effect ([15]; Ile-Trp during chemotherapy): fewer complications and side effects related to chemotherapy
sickness rate for 12 months ([16]; Ile-Trp 50 μg): significant decrease of sickness rate
clinical effect ([17]; Ile-Trp with antibiotics): accelerated healing of chronic and acute ear infections
clinical effect ([18]; Ile-Trp IM 100 μg 5 days with conventional therapy): reduction in fever
clinical effect ([19]; Ile-Trp 100 μg 5-10 days): accelerated reduction in symptom complexes

Glu-Trp [IM862]
clinical effect ([1]; IM862 with interferon, 37 patients): accelerated regression of foci of herpetic infection
healing earlier than control groups ([1]; IM862 with interferon, on the average): 40%
clinical effect ([2]; IM862 100 μg instillation, 46 patients): accelerated arrestation of the inflammatory process
clinical effect ([3]; IM862 IM 100 μg 10 days, 125 patients): normalization of fever
clinical effect ([4]; IM862 100 μg daily 5-10 days, 97 women): BP normalized
decrease in the incidence of bronchial asthma ([5]; IM862, following year observation): 4.2 fold
clinical effect ([5]; IM862 IM 1 μg/kg 5-10 days, 37 patients): less severe clinical symptoms
clinical effect ([6]; IM862 100 μg 10 days, 176 patients): pronounced positive influence on clinical course
increase of staphylococci antibiotic-sensitivity ([7]; IM862 100 μg 5 days, patients with secondary T-immunodeficiency): more than 100 fold
complete recovery, number of patients ([7]; IM862 treatment regimen): 27 patients
moderate improvement, number of patients ([7]; IM862 treatment regimen): 1 patient
significant improvement, number of patients ([7]; IM862 treatment regimen): 8 patients
clinical effect ([8]; IM862 50 to 100 μg every other day, 2 months after the course, 37 patients): disappearance of toxic symptoms
clinical effect ([9]; IM862 IM or intranasally): improved immune parameters
alloblood rejection ([10]; IM862 100 μg 5 days, 76 patients): None of studies patients showed clinical manifestation of alloblood rejection
clinical effect ([11]; toothpaste containing IM862): reduction of gingival disease and reduction in dental caries
clinical effect ([12]; IM862 100 μg 5-10 days with conventional therapy, 27 patients): reduction of fever
clinical effect ([13]; IM862, 159 patients): Immunological indices were normalized with disappearance of skin manifestations
wound healing ([14]; IM862): speeded up; also recorded: accelerates wound healing
clinical effect ([15]; IM862 during chemotherapy): fewer complications and side effects related to chemotherapy
sickness rate for 12 months ([16]; IM862 50 μg, 268 persons): significant decrease of sickness rate
clinical effect ([17]; IM862 with antibiotics): accelerated healing of chronic and acute ear infections
clinical effect ([18]; IM862 IM 100 μg 3 days with conventional therapy, 21 patients): reduction in fever
clinical effect ([19]; IM862 100 μg 5-10 days, 156 patients): accelerated reduction in symptom complexes
